Measurements from patent publication US12636376B2, “Methods and compositions for use of growth factor antibodies in combination with non-tyrosine targeting kinase inhibitors” (In3Bio Ltd., priority 2019, dated 2026).

Assays:
[1] = cited from earlier work
[2] = system: pEGFR, pAkt, pErk½ signaling in H508 cells; assay: Western blot of pEGFR, pAkt, pErk½ signaling, 2 hour incubation, H508 cells; format: cell-based; details: 2 hour incubation with EGF, FIG. 20
[3] = patients taking Alpelisib; cited from earlier work

## CC(=O)Nc1cccc(-n2c(=O)n(C3CC3)c(=O)c3c(Nc4ccc(I)cc4F)n(C)c(=O)c(C)c32)c1 [Trametinib, N-[3-[3-cyclopropyl-5-(2-fluoro-4-iodoanilino)-6,8-dimethyl-2,4,7-trioxopyrido[4,3-d]pyrimidin-1-yl]phenyl]acetamide]
[1]; human, in vivo
  Elimination half-life: 93.6 to 115 h
[1]; oral administration, patients with BRAF V600 mutation-positive melanoma
  peak plasma concentration occurred post-dose (Tmax): 1.5 h
[1]; single 2 mg oral dose
  bioavailability: 72%

## Cc1nc(NC(=O)N2CCC[C@H]2C(N)=O)sc1-c1ccnc(C(C)(C)C(F)(F)F)c1 [Alpelisib, (2S)-1-N-[4-methyl-5-[2-(1,1,1-trifluoro-2-methylpropan-2-yl)pyridin-4-yl]-1,3-thiazol-2-yl]pyrrolidine-1,2-dicarboxamide]
[2]
  pAkt: inhibit pAkt
  pEGFR or pErk½ signaling: do not affect
[3]
  dose dependent benefit from treatment: advantage of 300 mg once daily over 150 mg twice daily: 22%
  dose dependent benefit from treatment: advantage of a 200 mg daily dose over a 100 mg dose: 51%

## COC(=O)N[C@@H](C)CNc1nccc(-c2cn(C(C)C)nc2-c2cc(Cl)cc(NS(C)(=O)=O)c2F)n1 [Encorafenib, methyl N-[(2S)-1-[[4-[3-[5-chloro-2-fluoro-3-(methanesulfonamido)phenyl]-1-propan-2-ylpyrazol-4-yl]pyrimidin-2-yl]amino]propan-2-yl]carbamate]
[1]; after oral administration
  median Tmax: 2 h
[1]; oral administration
  dose absorbed: At least 86%
